Test results: US20120270819A1, “USE OF COMPOUNDS WITH SGLT-1/SGLT-2 INHIBITOR ACTIVITY FOR PRODUCING MEDICAMENTS FOR TREATMENT OF BONE DISEASE” (SANOFI, priority 2009, published 2012)

Tested on: female Sprague-Dawley mature and young adult rats
Experiment: Ex vivo peripheral quantitative computed tomography (pQCT) of right femur (metaphysis, diaphysis, length)
Type: in vivo, rat
Settings: Mature Adults; for pQCT femur (diaphysis) CSMI / pQCT femur (diaphysis) Cortical Area / pQCT femur (diaphysis) Cortical BMC / pQCT femur (diaphysis) Cortical BMD / pQCT femur (diaphysis) Cortical Thickness / pQCT femur (diaphysis) Endosteal Circumference / pQCT femur (diaphysis) Periosteal Circumference / pQCT femur (diaphysis) Total Area / pQCT femur (diaphysis) Total BMC / pQCT femur (diaphysis) Total BMD / pQCT femur Length / pQCT femur metaphysis C/SC (Cortical/Subcortical) BMC / pQCT femur metaphysis C/SC (Cortical/Subcortical) BMD / pQCT femur metaphysis Total Area / pQCT femur metaphysis Total BMC / pQCT femur metaphysis Total BMD / pQCT femur metaphysis Trabecular BMC / pQCT femur metaphysis Trabecular BMD: mean
Protocol: The following were evaluated: clinical signs (at least weekly), body weight (weekly), food consumption (weekly), hormones (Days 13 and 27), serum and urinary biochemical markers of bone turnover (Days 13 and 27), serum chemistry (at necropsy), bone densitometry by dual energy X-ray absorptiometry (DXA) and peripheral quantitative computed tomography (pQCT) (Week 2 and 4, as well as ex vivo), macroscopic observations at necropsy, organ weights, histopathology, biomechanical strength testing and femoral length measurements.
3.2 Ex Vivo Peripheral Quantitative Computed Tomography (pQCT)
Peripheral QCT scans were performed ex vivo using an XCT Research SA or SA+ bone scanner with software version 5.50D. Scans were obtained for the right femur, L3 and L4 lumbar vertebra for all animals euthanized at the end of the treatment period as well as two found dead animals. These two animals were scanned twice due to technical oversight, however only the first scans obtained were reported and the second scans were kept with the study file, this had no impact on the study as both scans were considered equivalent.
For the femurs, the scanned site was at the expected 3-point bending fracture site (diaphysis). This site was analyzed using Cortmode 2 for cortical bone measurements only (Table 5). An additional slice was obtained in the metaphysis. The metaphysis scan was not performed for the femur of three animals due to condyles detachment from the femur during trimming.
The femoral length was measured as part of the ex vivo pQCT scanning procedures and was reported for the right femur of all animals with the exception of 3 animas due to damaged femoral condyles.
All analyses were performed using the LOOP option of the analysis software. All other data generated as a result of the LOOP option were retained with the raw data but not reported. The most appropriate analysis mode for the femur and the lumbar vertebrae was used and documented in the raw data and the analysis details are presented in Table 6. All scan analysis data was retained and re-analyses documented.

## COc1ccc(Cc2c(OC3OC(CO)C(F)C(O)C3O)n[nH]c2C(F)(F)F)cc1 (stereo not drawn) [Example 5 of formula II]
10 mg/kg/day
  pQCT femur (diaphysis) CSMI, percent difference from Vehicle Control: 5.7%
  pQCT femur (diaphysis) Cortical Area, percent difference from Vehicle Control: 2.3%
  pQCT femur (diaphysis) Cortical BMC, percent difference from Vehicle Control: 2.7%
  pQCT femur (diaphysis) Cortical BMD, percent difference from Vehicle Control: 0.5%
  pQCT femur (diaphysis) Cortical Thickness, percent difference from Vehicle Control: 0.6%
  pQCT femur (diaphysis) Endosteal Circumference, percent difference from Vehicle Control: 2.3%
  pQCT femur (diaphysis) Periosteal Circumference, percent difference from Vehicle Control: 1.0%
  pQCT femur (diaphysis) Total Area, percent difference from Vehicle Control: 3.1%
  pQCT femur (diaphysis) Total BMC, percent difference from Vehicle Control: 3.0%
  pQCT femur (diaphysis) Total BMD, percent difference from Vehicle Control: 0.1%
  pQCT femur Length, percent difference from Vehicle Control: −0.4%
  pQCT femur metaphysis C/SC BMC, percent difference from Vehicle Control: 6.2%
  pQCT femur metaphysis C/SC BMD, percent difference from Vehicle Control: 2.0%
  pQCT femur metaphysis Total Area, percent difference from Vehicle Control: 4.4%
  pQCT femur metaphysis Total BMC, percent difference from Vehicle Control: 7.8%
  pQCT femur metaphysis Total BMD, percent difference from Vehicle Control: 3.5%
  pQCT femur metaphysis Trabecular BMC, percent difference from Vehicle Control: 14.7%
  pQCT femur metaphysis Trabecular BMD, percent difference from Vehicle Control: 9.9%
  pQCT femur (diaphysis) CSMI: 5.0 mm^4
  pQCT femur (diaphysis) Cortical Area: 6.5 mm^2
  pQCT femur (diaphysis) Cortical BMC: 8.5 mg/mm
  pQCT femur (diaphysis) Cortical BMD: 1312.6 mg/cm^3
  pQCT femur (diaphysis) Cortical Thickness: 0.76 mm
  pQCT femur (diaphysis) Endosteal Circumference: 6.2 mm
  pQCT femur (diaphysis) Periosteal Circumference: 10.8 mm
  pQCT femur (diaphysis) Total Area: 9.6 mm^2
  pQCT femur (diaphysis) Total BMC: 9.1 mg/mm
  pQCT femur (diaphysis) Total BMD: 955.6 mg/cm^3
  pQCT femur Length: 37.0 mm
  pQCT femur metaphysis C/SC (Cortical/Subcortical) BMC: 10.1 mg/mm
  pQCT femur metaphysis C/SC (Cortical/Subcortical) BMD: 1054.0 mg/cm^3
  pQCT femur metaphysis Total Area: 16.0 mm^2
  pQCT femur metaphysis Total BMC: 12.6 mg/mm
  pQCT femur metaphysis Total BMD: 791.1 mg/cm^3
  pQCT femur metaphysis Trabecular BMC: 2.5 mg/mm
  pQCT femur metaphysis Trabecular BMD: 396.9 mg/cm^3
50 mg/kg/day
  pQCT femur (diaphysis) CSMI, percent difference from Vehicle Control: −3.0%
  pQCT femur (diaphysis) Cortical Area, percent difference from Vehicle Control: 0.2%
  pQCT femur (diaphysis) Cortical BMC, percent difference from Vehicle Control: 1.2%
  pQCT femur (diaphysis) Cortical BMD, percent difference from Vehicle Control: 1.0%
  pQCT femur (diaphysis) Cortical Thickness, percent difference from Vehicle Control: 3.5%
  pQCT femur (diaphysis) Endosteal Circumference, percent difference from Vehicle Control: −5.6%
  pQCT femur (diaphysis) Periosteal Circumference, percent difference from Vehicle Control: −2.1%
  pQCT femur (diaphysis) Total Area, percent difference from Vehicle Control: −3.4%
  pQCT femur (diaphysis) Total BMC, percent difference from Vehicle Control: 0.0%
  pQCT femur (diaphysis) Total BMD, percent difference from Vehicle Control: 3.5%
  pQCT femur Length, percent difference from Vehicle Control: −0.4%
  pQCT femur metaphysis C/SC BMC, percent difference from Vehicle Control: 4.0%
  pQCT femur metaphysis C/SC BMD, percent difference from Vehicle Control: 7.0%
  pQCT femur metaphysis Total Area, percent difference from Vehicle Control: −2.7%
  pQCT femur metaphysis Total BMC, percent difference from Vehicle Control: 5.1%
  pQCT femur metaphysis Total BMD, percent difference from Vehicle Control: 8.0%
  pQCT femur metaphysis Trabecular BMC, percent difference from Vehicle Control: 9.7%
  pQCT femur metaphysis Trabecular BMD, percent difference from Vehicle Control: 12.3%
  pQCT femur (diaphysis) CSMI: 4.6 mm^4
  pQCT femur (diaphysis) Cortical Area: 6.4 mm^2
  pQCT femur (diaphysis) Cortical BMC: 8.4 mg/mm
  pQCT femur (diaphysis) Cortical BMD: 1319.4 mg/cm^3
  pQCT femur (diaphysis) Cortical Thickness: 0.78 mm
  pQCT femur (diaphysis) Endosteal Circumference: 5.7 mm
  pQCT femur (diaphysis) Periosteal Circumference: 10.4 mm
  pQCT femur (diaphysis) Total Area: 9.0 mm^2
  pQCT femur (diaphysis) Total BMC: 8.8 mg/mm
  pQCT femur (diaphysis) Total BMD: 988.0 mg/cm^3
  pQCT femur Length: 37.0 mm
  pQCT femur metaphysis C/SC (Cortical/Subcortical) BMC: 9.9 mg/mm
  pQCT femur metaphysis C/SC (Cortical/Subcortical) BMD: 1105.5 mg/cm^3
  pQCT femur metaphysis Total Area: 14.9 mm^2
  pQCT femur metaphysis Total BMC: 12.3 mg/mm
  pQCT femur metaphysis Total BMD: 825.3 mg/cm^3
  pQCT femur metaphysis Trabecular BMC: 2.4 mg/mm
  pQCT femur metaphysis Trabecular BMD: 405.3 mg/cm^3
